# Test results: patent US5470852A, “Tetrahydroprotoberberine quaternary ammonium compounds useful in for treating arrhythmia” (priority 1991, dated 1995)
# “Also recorded” adds a separate entry of the source. Like-named read-outs stand apart in the source and are kept apart here.
# Key:
# hypertrophic rat heart = assay: Reperfusion-induced VF and VT in hypertrophic rat heart (L-thyroxine); format: in vivo
# Method: 4. In the model of hypertrophic rat heart muscle disease caused by long term injections of L-thyroxine, high incidence of VF has been induced in vitro and in vivo when compared with the control after low perfusion-reperfusion or ischemia-reperfusion protocol. […] (shown in Tab 6)
# Effect of I13 (100 mg/kg, ig administration at 1 hour before experiment)
# on reperfusion-induced VF and VT in hypertrophic rat heart, a
# myopathy induced by injecting L-thyroxin
# [1] = system: Langendorff's perfused rat hearts; assay: Ischemia/reperfusion-induced arrhythmias, I13 in perfusate, Langendorff's perfused rat hearts; format: cell-based
# Text: FIG. 2. Influence of I13 in perfusate on the time course of reperfusion-induced arrhythmias in Langendorff's perfused rat hearts
# [2] = system: left ventricular activity in rabbits; assay: Monophasic action potential (MAP) recorded from left ventricle in rabbits; format: in vivo, rabbit
# Text: The effectiveness of I13 in lengthening APD is confirmed by the influence on monophasic action potential (MAP) recorded from the left ventricular activity in rabbits.
# dogs = assay: Ouabain-induced arrhythmia in dogs; format: in vivo, dog; conditions: for Incidence of arrhythmia: I13 iv 3 mg/kg, lidocaine iv 12 mg/kg
# Method: (iv, 12 mg/kg) on ouabain induced arrhythmia in dogs
# (Ouabain administration for 30 min)
# [3] = system: normal papillary muscles in rats; assay: Action potential in normal papillary muscles in rats; format: cell-based, rat; conditions: n=6, I13 concentration not given
# Text: (§1) Effect of I13 (μ mol/L) on estimates of action potential induced in
# (§2) normal and pathological papillary muscles in rats.
# [4] = system: various experimental arrhythmic models; assay: Overall antiarrhythmic, anti-VF and anti-ischemic activity (summary); format: in vivo
# [5] = system: pathological papillary muscles in rats (hypertrophy); assay: Action potential in hypertrophic papillary muscles in rats (abdominal aorta occlusion); format: cell-based, rat
# Text: as §1, §2
# [6] = system: pathological papillary muscles in rats (cardiomyopathy); assay: Action potential in papillary muscles of rats with cardiomyopathy (L-thyrotoxin); format: cell-based, rat
# Text: as §1, §2
# anaesthetized rats = assay: animal or person; conditions: Rattus norvegicus
# [7] = 100 mg/kg ig 1 hour before, n=10
# [8] = hypertrophy, n=5, I13 concentration not given
# [9] = cardiomyopathy, n=5, I13 concentration not given
compound,measurement,setting,value
"COc1ccc2c(c1OC)C[N+]1(Cc3ccc(Cl)cc3)CCc3cc4c(cc3C1C2)OCO4 (stereo not shown) [Compound I13, 7-(4-chlorobenzyl)-5,8,13,13a-tetrahydroberberine chloride]",Duration of VF,hypertrophic rat heart; [7],2.0 ± 3.0 min
same,Duration of VT,hypertrophic rat heart; [7],0.4 ± 0.8 min
same,Incidence of VF,hypertrophic rat heart; [7],30%
same,Incidence of VT,hypertrophic rat heart; [7],20%
same,inhibition of incidence of VF and VT,hypertrophic rat heart; p.o. 100 mg/kg one hour prior to ischemia,clearly inhibited the incidence of VF and VT
same,protection against VT and VF induced by ischemia and reperfusion,[1]; 3 μmol/L,effective protection against the VT and VF
same,ke,[1]; 3 μmol/L (FIG. 2),0.030 min⁻¹
same,ke,[1]; 10 μmol/L (FIG. 2),0.020 min⁻¹
same,lengthening of APD (MAP),[2],confirmed
same,Incidence of arrhythmia,dogs; 0 min (before administration),97 ± 5%
same,Incidence of arrhythmia,dogs; 5 min,83 ± 22%
same,Incidence of arrhythmia,dogs; 10 min,72 ± 31%
same,Incidence of arrhythmia,dogs; 15 min,59 ± 36%
same,Incidence of arrhythmia,dogs; 20 min,45 ± 43%
same,Incidence of arrhythmia,dogs; 25 min,40 ± 38%
same,Incidence of arrhythmia,dogs; 30 min,27 ± 34%
same,Incidence of arrhythmia,dogs; 35 min,26 ± 34%
same,Incidence of arrhythmia,dogs; 40 min,14 ± 33%
same,Incidence of arrhythmia,dogs; 45 min,12 ± 31%
same,Incidence of arrhythmia,dogs; 50 min,11 ± 28%
same,Incidence of arrhythmia,dogs; 60 min,8 ± 20%
same,inhibition of ouabain-induced arrhythmias,dogs; dogs,markedly inhibited
same,antiarrhythmic effect compared with lidocaine,dogs; i.v. gtt. 0.1 mg/kg/min for 30 mins vs lidocaine 0.4 mg/kg/min,the same antiarrhythmic effect as lidocaine
same,anti-arrhythmic activity relative to lidocaine,"dogs; ouabain, dogs",4 times
same,reoccurrence of arrhythmia,dogs; within 4 hour period,lack of reoccurrence of arrhythmia within a 4 hour period
same,APA,[3],108 ± 9 mv
same,APD20,[3],5 ± 1 ms
same,APD50,[3],15 ± 4 ms
same,APD90,[3],44 ± 9 ms
same,ERP,[3],43 ± 8 ms
same,RP,[3],83 ± 4 mv
same,Vmax,[3],200 ± 50 v/s
same,inhibition of ventricular fibrillation and myocardial ischemia,[4]; in vivo,inhibits ventricular fibrillation and myocardial ischemia
same,"protection against arrhythmia, VF and myocardial ischemic injury",[4]; in vivo,"advanced protection against arrhythmia, ventricular fibrillation (VF) and myocardial ischemic injury"
same,antiarrhythmic effects,[4]; various experimental arrhythmic models,marked antiarrhythmic effects
same,influence on APD in hypertrophic myocardium,[5],could not be further exaggerated; also recorded: no action on hypertrophic myocardium
same,Vmax in left ventricular hypertrophy,"[5]; abdominal aorta occlusion, rats",completely inhibited
same,APA,[5]; [8],104 ± 4 mv
same,APD20,[5]; [8],8 ± 2 ms
same,APD50,[5]; [8],20 ± 4 ms
same,APD90,[5]; [8],45 ± 5 ms
same,ERP,[5]; [8],45 ± 9 ms
same,RP,[5]; [8],81 ± 3 mv
same,Vmax,[5]; [8],210 ± 40 v/s
same,Vmax in cardiomyopathy model,"[6]; L-thyrotoxin, rats",completely inhibited
same,APA,[6]; [9],104 ± 7 mv
same,APD20,[6]; [9],12 ± 3 ms
same,APD50,[6]; [9],32 ± 4 ms
same,APD90,[6]; [9],65 ± 5 ms
same,ERP,[6]; [9],66 ± 6 ms
same,RP,[6]; [9],81 ± 5 mv
same,Vmax,[6]; [9],160 ± 50 v/s
same,ED50,anaesthetized rats; iv,0.16 mg/kg
same,ED50,"anaesthetized rats; iv, read-out: ED50 against VF",0.16 mg/kg
same,ED50,"anaesthetized rats; iv, read-out: ED50 against arrhythmias",0.22 mg/kg
same,ED50,anaesthetized rats; po,16.5 mg/kg
same,ED50,"anaesthetized rats; po, read-out: ED50 against VF",20 mg/kg
same,ED50,"anaesthetized rats; po, read-out: ED50 against arrhythmias",16.5 mg/kg
